Laboratory results published in ChEMBL document CHEMBL1150230, “Mappain, a new cytotoxic prenylated stilbene from Macaranga mappa” (J Nat Prod, 2001).

Columns and labels:
Format in all cases: functional, cell-based
[1] = system: MDA-MB-435; test: Cytotoxicity against multidrug-sensitive human MDA-MB-435 cells by SRB assay
[2] = system: SK-OV-3; test: Cytotoxicity against multidrug-sensitive human SKOV3 cells by SRB assay
[3] = Cytotoxicity against multidrug-resistant human SKVLB1cells by SRB assay

`CC(C)=CCC/C(C)=C/Cc1cc(/C=C/c2cc(O)c(CC=C(C)C)c(O)c2)cc(O)c1O` [MAPPAIN] showed an IC50 [1] of 1000 nM, an IC50 [2] of 1300 nM and an IC50 [3] of 1300 nM.
